Consider 21 compounds from PubChem BioAssay AID274 (DTP/NCI, 2004).

Values joined by “and” are separate entries in the source; they are usually repeats but may differ in a detail not shown here. Equal entries are not always repeated. Inconclusive results and toxic doses are left out. Numbered stars: 1 amine (or outer) side, 2 acyl side, 3 side chain; on linkers, the order of the positions; unused ones are H or OH. Square brackets hold non-standard residues; d marks the D form. Peptide text beside a SMILES is read from it. * marks the point of attachment. X2 = CCC(=O)CC1CC(C)CC(C(=O)[*:2])N1[*:1]; Trt = c1ccc(C(c2ccccc2)(c2ccccc2)*)cc1; X1 = CCCCCCCCC(C)C(=O)*; Cbz = O=C(OCc1ccccc1)*; Aib = CC(C)(N)C(=O)O; X3 = CC(CN(C)CCO)N*; Bn = c1ccc(C*)cc1; βAla = NCCC(=O)O

The test system of this experiment is BDF1 mice, Lewis lung carcinoma iv, survival T/C. Kind of experiment: NCI In Vivo Anticancer Drug Screen. Data for tumor model Lewis Lung Carcinoma (intravenous) in B6D2F1 (BDF1) mice. The following applies: endpoint: median survival time, higher = longer survival. As for the experimental part:
The antitumor activity of compounds was measured in mice bearing transplantable tumors. Survival or tumor size were measured and the results are expressed as the measurement made in the treated group (T) divided by the measurement made in the vehicle treated control group (C). The tumor model used in this assay is Lewis Lung Carcinoma (intravenous) in B6D2F1 (BDF1) mice

[1] abbreviates: dose: 25.0 mg/kg/injection, schedule: Q01DX009 (ip), vehicle: saline.
[2] abbreviates: dose: 50.0 mg/kg/injection, schedule: Q01DX009 (ip), vehicle: saline.
[3] abbreviates: dose: 100.0 mg/kg/injection, schedule: Q01DX009 (ip), vehicle: saline.
Where [4] appears, read: dose: 200.0 mg/kg/injection, schedule: Q01DX009 (ip), vehicle: saline.
Setting [5] is: dose: 6.25 mg/kg/injection, schedule: Q01DX009 (ip), vehicle: saline with Tween-80.
Where [6] appears, read: dose: 12.5 mg/kg/injection, schedule: Q01DX009 (ip), vehicle: saline with Tween-80.
Setting [7] is: dose: 25.0 mg/kg/injection, schedule: Q01DX009 (ip), vehicle: saline with Tween-80.
Where [8] appears, read: dose: 50.0 mg/kg/injection, schedule: Q01DX009 (ip), vehicle: saline with Tween-80.
The mark [9] stands for this setting: dose: 12.5 mg/kg/injection, schedule: Q01DX009 (ip), vehicle: saline.
The mark [10] stands for this setting: dose: 0.62 mg/kg/injection, schedule: Q01DX009 (ip), vehicle: Klucel (hydroxypropylcellulose) (HPC).
Where [11] appears, read: dose: 1.25 mg/kg/injection, schedule: Q01DX009 (ip), vehicle: Klucel (hydroxypropylcellulose) (HPC).
The mark [12] stands for this setting: dose: 2.5 mg/kg/injection, schedule: Q01DX009 (ip), vehicle: Klucel (hydroxypropylcellulose) (HPC).
[13] abbreviates: dose: 12.5 mg/kg/injection, schedule: Q01DX009 (ip), vehicle: Klucel (hydroxypropylcellulose) (HPC).
The mark [14] stands for this setting: dose: 25.0 mg/kg/injection, schedule: Q01DX009 (ip), vehicle: Klucel (hydroxypropylcellulose) (HPC).
Where [15] appears, read: dose: 50.0 mg/kg/injection, schedule: Q01DX009 (ip), vehicle: Klucel (hydroxypropylcellulose) (HPC).
Setting [16] is: dose: 100.0 mg/kg/injection, schedule: Q01DX009 (ip), vehicle: Klucel (hydroxypropylcellulose) (HPC).

Consider `c1cn[nH]c1`, for which the T/C by setting is: under setting [1], 121 % of control; under setting [2], 110 % of control.
On to `COCCOC`, for which the T/C under setting [3] was 100 % of control; the T/C under setting [4] is 102 % of control; the T/C (dose: 400.0 mg/kg/injection, schedule: Q01DX009 (ip), vehicle: saline) is 100 % of control.
For the compound `CC(C)n1cc2c(N)ncnc2n1`, the T/C runs as follows: under setting [1], 107 % of control; under setting [2], 112 % of control; under setting [3], 117 % of control.
For the compound `NC(N)=NC(N)=Nc1ccc(-c2ccc(N=C(N)N=C(N)N)cc2)cc1`, the T/C by setting is: (dose: 0.78 mg/kg/injection, schedule: Q01DX009 (ip), vehicle: saline with Tween-80) 110 % of control; (dose: 1.56 mg/kg/injection, schedule: Q01DX009 (ip), vehicle: saline with Tween-80) 110 % of control; (dose: 3.13 mg/kg/injection, schedule: Q01DX009 (ip), vehicle: saline with Tween-80) 99 % of control; under setting [5], 90 % of control; under setting [6], 113 % of control.
For `CC(=O)OC1C2(CC3N4C(=O)C5(CO)SSC4(CC31O)C(=O)N5C)OC(C)C(C)(C)C2=O` (centres undefined), the T/C (dose: 0.62 mg/kg/injection, schedule: Q01DX009 (ip), vehicle: saline) is 171 % of control.
As for `Cc1c[nH]c(=O)[nH]c1=O`, the T/C (dose: 32.0 mg/kg/injection, schedule: Q01DX009 (ip), vehicle: Klucel (hydroxypropylcellulose) (HPC)) was 104 % of control; the T/C (dose: 64.0 mg/kg/injection, schedule: Q01DX009 (ip), vehicle: Klucel (hydroxypropylcellulose) (HPC)) is 114 % of control; the T/C (dose: 128.0 mg/kg/injection, schedule: Q01DX009 (ip), vehicle: Klucel (hydroxypropylcellulose) (HPC)) was 93 % of control; the T/C (dose: 256.0 mg/kg/injection, schedule: Q01DX009 (ip), vehicle: Klucel (hydroxypropylcellulose) (HPC)) was 101 % of control; the T/C (dose: 512.0 mg/kg/injection, schedule: Q01DX009 (ip), vehicle: Klucel (hydroxypropylcellulose) (HPC)) is 92 % of control.
Take `ClCc1ccc2ccccc2n1`: the T/C by setting is: under setting [7], 100 % of control; under setting [8], 92 % of control; (dose: 100.0 mg/kg/injection, schedule: Q01DX009 (ip), vehicle: saline with Tween-80) 119 % of control.
In the case of `COc1cc2cc[n+](C)c(Cc3ccccc3)c2cc1OC`, the T/C reads like this: (dose: 3.12 mg/kg/injection, schedule: Q01DX009 (ip), vehicle: saline with Tween-80) 285 % of control; (dose: 3.12 mg/kg/injection, schedule: Q01DX009 (ip), vehicle: saline) 106 % of control; under setting [5], 91 % of control; (dose: 6.25 mg/kg/injection, schedule: Q01DX009 (ip), vehicle: saline) 108 % of control; under setting [6], 161 % of control; under setting [9], 116 % of control. Also, the T/C by setting is: under setting [7], 95 % of control; under setting [1], 120 % of control.
On to `CCC(C(=O)O)C(=O)O.[NH-]CC1CCCC[N-]1.[Pt+2]`, for which the T/C is 98 % of control and 100 % of control under setting [1]; 100 % of control under setting [2].
On to `COC1/C=C\C=C(/C)C(=O)NC2=CC(=O)C=C(C2=O)C(OC)C(C)CC(OC)C(OC)C(C)/C=C(/C)C1OC(N)=O` (centres undefined), for which the T/C (dose: 0.18 mg/kg/injection, schedule: Q01DX009 (ip), vehicle: Klucel (hydroxypropylcellulose) (HPC)) was 112 % of control; the T/C (dose: 0.37 mg/kg/injection, schedule: Q01DX009 (ip), vehicle: Klucel (hydroxypropylcellulose) (HPC)) is 115 % of control; the T/C (dose: 0.75 mg/kg/injection, schedule: Q01DX009 (ip), vehicle: Klucel (hydroxypropylcellulose) (HPC)) was 112 % of control; the T/C (dose: 1.5 mg/kg/injection, schedule: Q01DX009 (ip), vehicle: Klucel (hydroxypropylcellulose) (HPC)) is 105 % of control.
Take `COc1cc2c(c(OC)c1O)-c1ccc(OC)c(=O)cc1[C@@H](NC(=O)C(F)(F)F)CC2`: the T/C reads like this: under setting [10], 101 % of control; under setting [11], 87 % of control; under setting [12], 88 % of control.
For `NC(=O)c1[nH]nc(C2OC(CO)C(O)C2O)c1O` (centres undefined), the T/C runs as follows: (dose: 78.13 micrograms/kg/injection, schedule: Q01DX009 (ip), vehicle: water) 98 % of control; (dose: 156.25 micrograms/kg/injection, schedule: Q01DX009 (ip), vehicle: water) 118 % of control; (dose: 312.5 micrograms/kg/injection, schedule: Q01DX009 (ip), vehicle: water) 87 % of control; (dose: 625.0 micrograms/kg/injection, schedule: Q01DX009 (ip), vehicle: water) 122 % of control.
`CC1CCC2(OC1)OC1CC3C4CCC5CC(O)CCC5(C)C4CCC3(C)C1C2C` (centres undefined): where the note is “dose: 20.0 mg/kg/injection, schedule: Q01DX009 (ip), vehicle: Klucel (hydroxypropylcellulose) (HPC)”, the T/C is 91 % of control.
As to `O=P1(NCCCl)OCCC(OO)N1CCCl` (centres undefined), the T/C (dose: 69.0 mg/kg/injection, schedule: Q01DX001 (ip), vehicle: Klucel (hydroxypropylcellulose) (HPC)) is 150 % of control; the T/C (dose: 101.0 mg/kg/injection, schedule: Q01DX001 (ip), vehicle: Klucel (hydroxypropylcellulose) (HPC)) was 117 % of control; the T/C (dose: 230.0 mg/kg/injection, schedule: Q01DX001 (ip), vehicle: Klucel (hydroxypropylcellulose) (HPC)) was 160 % of control.
For `C[n+]1cccc(NC(=O)c2ccc(NC(=O)C34CCC(C(=O)Nc5ccc(C(=O)Nc6ccc[n+](C)c6)cc5)(CC3)CC4)cc2)c1`, the T/C was 93 % of control (dose: 5.0 mg/kg/injection, schedule: Q01DX009 (ip), vehicle: saline with Tween-80) and 99 % of control (dose: 10.0 mg/kg/injection, schedule: Q01DX009 (ip), vehicle: saline with Tween-80).
For `COC1OC(CO)C(O)C(NC(=O)N(C)N=O)C1O` (centres undefined), the T/C under setting [9] is 109 % of control; the T/C under setting [1] was 108 % of control and 115 % of control; the T/C under setting [3] was 123 % of control; the T/C under setting [4] is 152 % of control.
Take `COc1ccc(C(Cn2ccnc2)Sc2ccc(Cl)c(Cl)c2)cc1` (centres undefined): the T/C runs as follows: under setting [5], 95 % of control; under setting [6], 97 % of control; under setting [7], 96 % of control; under setting [8], 100 % of control.
Regarding `COC(=O)C(CSC(c1ccccc1)(c1ccccc1)c1ccccc1)NC(=O)C(CSCc1ccccc1)NC(=O)CCNC(=O)OCc1ccccc1` (centres undefined) ({Cbz-βAla}-Cys(Bn)-Cys(Trt)-OMe; configuration not given here), the T/C under setting [13] is 104 % of control; the T/C under setting [14] is 96 % of control; the T/C under setting [15] is 103 % of control; the T/C under setting [16] is 98 % of control; the T/C (dose: 200.0 mg/kg/injection, schedule: Q01DX009 (ip), vehicle: Klucel (hydroxypropylcellulose) (HPC)) was 97 % of control.
Consider `O=C(O)/C=C/C(=O)Nc1ccc(Cl)c(Cl)c1`, for which the T/C is 102 % of control under setting [13], 99 % of control under setting [14], 98 % of control under setting [15] and 104 % of control under setting [16].
`CCN1C[C@]2(COC)[C@H](O)C[C@H](OC)[C@]34C1[C@H]([C@H](OC)[C@H]23)[C@]1(OC(C)=O)[C@H]2[C@@H](OC(=O)c3ccccc3)[C@](O)(C[C@H]24)[C@@H](OC)[C@@H]1O`: the T/C (dose: 0.03 mg/kg/injection, schedule: Q01DX009 (ip), vehicle: Klucel (hydroxypropylcellulose) (HPC)) was 108 % of control; the T/C (dose: 0.06 mg/kg/injection, schedule: Q01DX009 (ip), vehicle: Klucel (hydroxypropylcellulose) (HPC)) was 107 % of control; the T/C (dose: 0.13 mg/kg/injection, schedule: Q01DX009 (ip), vehicle: Klucel (hydroxypropylcellulose) (HPC)) is 99 % of control.
On to `CCCCCCCCC(C)C(=O)N1CCCC1C(=O)N1C(CC(=O)CC)CC(C)CC1C(=O)NC(C)C(=O)NC(C)(C)C(=O)NC(C)(C)C(=O)NC(C(=O)NC(C)C(=O)NC(C)(C)C(=O)NC(C)(C)C(=O)NC(C)CN(C)CCO)C(C)CC` (centres undefined) (X1-P[X2]A[Aib][Aib]IA[Aib][Aib]-X3; configuration not given here), for which the T/C runs as follows: (dose: 0.31 mg/kg/injection, schedule: Q01DX009 (ip), vehicle: Klucel (hydroxypropylcellulose) (HPC)) 105 % of control; under setting [10], 97 % of control; under setting [11], 99 % of control; under setting [12], 104 % of control; (dose: 5.0 mg/kg/injection, schedule: Q01DX009 (ip), vehicle: Klucel (hydroxypropylcellulose) (HPC)) 104 % of control.
